These results are taken from US8350027B2, “Dual-acting pyrazole antihypertensive agents” (Theravance, Inc., priority 2009, dated 2013).

In test [1] the target is T1, human AT1 receptor (Homo sapiens, UniProt P30556).
T1 construct: expressed in transfected cells; host or cells: CHO-K1
T1 sequence (P30556 1-359): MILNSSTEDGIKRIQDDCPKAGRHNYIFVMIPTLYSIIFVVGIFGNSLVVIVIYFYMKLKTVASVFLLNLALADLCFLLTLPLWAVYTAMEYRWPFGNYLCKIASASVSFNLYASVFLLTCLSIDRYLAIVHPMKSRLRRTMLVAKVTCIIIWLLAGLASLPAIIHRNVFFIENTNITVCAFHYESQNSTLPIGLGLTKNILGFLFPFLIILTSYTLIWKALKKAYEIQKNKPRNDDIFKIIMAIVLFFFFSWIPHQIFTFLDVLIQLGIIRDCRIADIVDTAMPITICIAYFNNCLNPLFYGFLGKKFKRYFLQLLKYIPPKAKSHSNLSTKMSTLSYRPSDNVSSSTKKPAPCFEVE
Put plainly: AT1 radioligand binding assay (displacement of [Eu]AngII). The following applies: membranes of CHO-K1 cells expressing cloned human AT1 receptor; values given as lower bounds; read-out: AT1 pKi (converted). An outline of the steps:
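Membranes from CHO-K1 cells stably expressing cloned human AT1, 0.2 μg protein, in 50 mM Tris/HCl pH 7.5, 5 mM MgCl2, 0.025% BSA. Compounds displaced [Eu]AngII over 120 min in the dark at room temperature or 37° C; filter-bound TRF read. Nonspecific binding with 10 μM angiotensin II; IC50 converted to Ki via Cheng-Prusoff, reported as pKi.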

The target in test [2] is T2, NEP enzyme (Homo sapiens, UniProt P08473).
T2 construct: purchased R&D Systems, Minneapolis, Minn; 1182-ZN
T2 sequence (P08473 52-750 limits assumed): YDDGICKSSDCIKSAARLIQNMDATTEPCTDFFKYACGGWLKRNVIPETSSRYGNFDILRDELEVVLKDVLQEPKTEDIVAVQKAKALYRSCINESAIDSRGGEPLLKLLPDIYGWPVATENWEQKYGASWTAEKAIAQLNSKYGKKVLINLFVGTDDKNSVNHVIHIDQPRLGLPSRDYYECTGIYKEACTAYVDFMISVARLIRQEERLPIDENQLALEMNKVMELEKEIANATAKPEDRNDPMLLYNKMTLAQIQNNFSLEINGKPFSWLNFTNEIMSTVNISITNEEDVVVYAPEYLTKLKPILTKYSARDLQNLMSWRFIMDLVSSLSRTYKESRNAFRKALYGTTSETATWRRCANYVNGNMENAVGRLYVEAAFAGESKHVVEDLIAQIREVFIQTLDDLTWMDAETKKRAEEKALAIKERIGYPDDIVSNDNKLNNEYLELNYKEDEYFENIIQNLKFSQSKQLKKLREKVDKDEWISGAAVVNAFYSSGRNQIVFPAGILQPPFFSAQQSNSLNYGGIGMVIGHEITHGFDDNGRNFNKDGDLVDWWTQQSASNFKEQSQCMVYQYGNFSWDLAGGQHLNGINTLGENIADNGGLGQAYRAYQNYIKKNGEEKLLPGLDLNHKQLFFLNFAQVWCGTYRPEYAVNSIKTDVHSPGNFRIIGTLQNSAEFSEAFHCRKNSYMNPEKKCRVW
Put plainly: NEP enzyme inhibition assay (fluorogenic peptide substrate). It counts as biochemical. The note with it: values given as lower bounds; * = prodrugs, may not exhibit NEP activity in an in vitro assay; read-out: NEP pIC50 (converted). An outline of the steps:
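Recombinant human NEP was run with Mca-BK2 (10 μM) at room temperature in Tris buffer with 1 μM Zn. Compounds (10 μM–20 pM, 12 points) were pre-equilibrated 10 min, then reacted 20 min and acid-stopped. Fluorescence ex 320/em 405 nm, one-site competition fit gives pIC50. Thiol compounds may be pre-treated with 400 μM TCEP.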

As for `CCCc1cc(C(=O)N[C@@H](CC(=O)NO)Cc2ccccc2)nn1Cc1ccc(-c2ccccc2-c2nnn[nH]2)cc1` [Example 3-16, 5-Propyl-1-[2′-(1H-tetrazol-5-yl)-biphenyl-4-ylmethyl]-1H-pyrazole-3-carboxylic acid ((R)-1-hydroxycarbamoylmethyl-2-phenylethyl)amide], in test [1], the Ki was not above 10 nM. Moreover, the IC50 in test [2] is not above 100 nM.

As for `CCOc1cc(C(=O)N[C@@H](CC(=O)O)Cc2ccccc2)nn1Cc1ccc(-c2ccccc2-c2nnn[nH]2)cc1F` [Example 3-31, (R)-3-({5-Ethoxy-1-[3-fluoro-2′-(1H-tetrazol-5-yl)biphenyl-4-ylmethyl]-1H-pyrazole-3-carbonyl}amino)-4-phenylbutyric acid], the Ki in test [1] is not above 100 nM. Besides, the IC50 in test [2] is not above 10000 nM.

With `CCCc1cc(C(=O)N[C@@H](CC(=O)NO)Cc2ccccc2)nn1Cc1ccc(-c2ccccc2S(=O)(=O)NC(C)=O)cc1` [Example 6-18, 1-(2′-Acetylsulfamoylbiphenyl-4-ylmethyl)-5-propyl-1H-pyrazole-3-carboxylic acid ((R)-1-benzyl-2-hydroxycarbamoylethyl)amide], the Ki in test [1] is not above 10 nM. Moreover, the IC50 in test [2] is not above 100 nM.

`CCCc1cc(C(=O)N[C@@H](CC(=O)O)Cc2ccccc2Cl)nn1Cc1ccc(-c2ccccc2-c2nnn[nH]2)cn1` [Example 15-2, (R)-4-(2-Chlorophenyl)-3-[(5-propyl-1-{5-[2-(1H-tetrazol-5-yl)phenyl]pyridin-2-ylmethyl}-1H-pyrazole-3-carbonyl)amino]butyric acid]: in test [1], the Ki is not above 100 nM. In addition, in test [2], the IC50 was not above 1000 nM.

On to `CCCc1cc(C(=O)N[C@H](Cc2ccccc2)[C@@H](O)C(=O)O)nn1Cc1ccc(-c2ccccc2-c2nnn[nH]2)cn1` [Example 15-1, (2R,3R)-2-Hydroxy-4-phenyl-3-[(5-propyl-1-{5-[2-(1H-tetrazol-5-yl)phenyl]pyridin-2-ylmethyl}-1H-pyrazole-3-carbonyl)amino]butyric acid], for which, in test [1], the Ki is not above 10 nM. In test [2], the IC50 is not above 1000 nM.

As to `CCCc1cc(C(=O)N[C@H](Cc2ccccc2)[C@H](O)C(=O)O)nn1Cc1ccc(-c2ccccc2-c2nnn[nH]2)nc1` [Example 14-9, (2S,3R)-2-Hydroxy-4-phenyl-3-[(5-propyl-1-{6-[2-(1H-tetrazol-5-yl)phenyl]pyridin-3-ylmethyl}-1H-pyrazole-3-carbonyl)amino]butyric acid], the Ki in test [1] was not above 10 nM. Also, the IC50 in test [2] is not above 100 nM.

For `CCCc1cc(C(=O)N[C@@H](CC(=O)O)Cc2ccccc2Cl)nn1Cc1ccc(-c2ccccc2-c2nnn[nH]2)cc1F` [Example 3-20, (R)-4-(2-chlorophenyl)-3-(1-((3-fluoro-2′-(1H-tetrazol-5-yl)biphenyl-4-yl)methyl)-5-propyl-1H-pyrazole-3-carboxamido)butanoic acid], in test [1], the Ki was not above 100 nM. For the same molecule, in test [2], the IC50 is not above 1000 nM.

On to `CCCc1cc(C(=O)N[C@@H](CC(=O)O)Cc2ccccc2)nn1Cc1cnc(-c2ccccc2S(=O)(=O)NC(C)=O)cn1` [Example 17-4, (R)-3-({1-[5-(2-Acetylsulfamoylphenyl)pyrazin-2-ylmethyl]-5-propyl-1H-pyrazole-3-carbonyl}amino)-4-phenylbutyric acid], for which, in test [1], the Ki is not above 10 nM. Also, in test [2], the IC50 is not above 1000 nM.

For the molecule `CCCc1cc(C(=O)N[C@@H](CC(=O)O)Cc2ccccc2C(F)(F)F)nn1Cc1ccc(-c2ccccc2S(=O)(=O)NC(C)=O)cc1` [Example 6-25, (R)-3-{[1-(2′-Acetylsulfamoylbiphenyl-4-ylmethyl)-5-propyl-1H-pyrazole-3-carbonyl]amino}-4-(2-trifluoromethylphenyl)butyric acid], in test [1], the Ki is not above 10 nM. Also, in test [2], the IC50 is not above 1000 nM.

As for `CCCc1cc(C(=O)N[C@@H](CS)Cc2ccccc2)nn1Cc1ccc(-c2ccccc2S(=O)(=O)NC(C)=O)nc1` [Example 14-3, 1-[6-(2-Acetylsulfamoyl-phenyl)pyridin-3-ylmethyl]-5-propyl-1H-pyrazole-3-carboxylic acid ((R)-1-benzyl-2-mercaptoethyl)amide], in test [1], the Ki is not above 100 nM. Moreover, the IC50 in test [2] was not above 100 nM.

In the case of `CCCc1cc(C(=O)N[C@@H](CC(=O)O)Cc2ccccc2Cl)nn1Cc1ccc(-c2ccccc2S(=O)(=O)NC(C)=O)cc1` [Example 6-27, (R)-3-{[1-(2′-Acetylsulfamoylbiphenyl-4-ylmethyl)-5-propyl-1H-pyrazole-3-carbonyl]amino}-4-(2-chlorophenyl)butyric acid], the Ki in test [1] is not above 10 nM. Further, the IC50 in test [2] is not above 1000 nM.

For `CCCc1cc(C(=O)N[C@H](CC(C)C)CN(O)C=O)nn1Cc1ccc(-c2ccccc2S(=O)(=O)NC(C)=O)cc1` [Example 6-15, 1-(2′-Acetylsulfamoyl-biphenyl-4-ylmethyl)-5-propyl-1H-pyrazole-3-carboxylic acid {(R)-1-[(formyl-hydroxy-amino)-methyl]-3-methylbutyl}amide], the Ki in test [1] is not above 10 nM. For the same molecule, the IC50 in test [2] is not above 100 nM.

Regarding `CCCc1cc(C(=O)N[C@H](Cc2ccccc2)[C@@H](O)C(=O)O)nn1Cc1ccc(-c2ccccc2S(=O)(=O)NC(C)=O)nc1` [Example 13, (2R,3R)-3-({1-[6-(2-Acetylsulfamoylphenyl)pyridin-3-ylmethyl]-5-propyl-1H-pyrazole-3-carbonyl}amino)-2-hydroxy-4-phenylbutyric Acid], in test [1], the Ki was not above 100 nM. The IC50 in test [2] was not above 100 nM.

`CCCc1cc(C(=O)N[C@@H](CC(=O)O)Cc2ccccc2Cl)nn1Cc1cnc(-c2ccccc2-c2nnn[nH]2)cn1` [Example 17-2, (R)-4-(2-Chlorophenyl)-3-[(5-propyl-1-{5-[2-(1H-tetrazol-5-yl)phenyl]pyrazin-2-ylmethyl}-1H-pyrazole-3-carbonyl)amino]butyric acid]: the Ki in test [1] was not above 10 nM. Further, the IC50 in test [2] was not above 1000 nM.

`CCCc1cc(C(=O)N[C@@H](CC(=O)O)Cc2ccccc2Cl)nn1Cc1ccc(-c2ccccc2S(=O)(=O)NC(C)=O)nc1` [Example 14-14, (R)-3-({1-[6-(2-Acetylsulfamoylphenyl)-pyridin-3-ylmethyl]-5-propyl-1H-pyrazole-3-carbonyl}-amino)-4-(2-chlorophenyl)butyric acid]: the Ki in test [1] was not above 10 nM. The IC50 in test [2] was not above 1000 nM.

Regarding `CCCc1cc(C(=O)N[C@H](Cc2ccccc2)[C@@H](O)C(=O)O)nn1Cc1ccc(-c2ccccc2S(=O)(=O)NC(=O)CC)cc1` [Example 7-10, (2R,3R)-2-Hydroxy-4-phenyl-3-{[1-(2′-propionylsulfamoylbiphenyl-4-ylmethyl)-5-propyl-1H-pyrazole-3-carbonyl]amino}butyric acid], the Ki in test [1] is not above 10 nM. Moreover, the IC50 in test [2] was not above 100 nM.

Take `CCOc1cc(C(=O)N[C@@H](CS)Cc2ccccc2)nn1Cc1ccc(-c2ccccc2-c2nnn[nH]2)cc1` [Example 3-4, 5-Ethoxy-1-[2′-(1H-tetrazol-5-yl)biphenyl-4-ylmethyl]-1H-pyrazole-3-carboxylic acid ((R)-1-benzyl-2-mercaptoethyl)amide]: in test [1], the Ki was not above 10 nM. Further, the IC50 in test [2] was not above 100 nM.

Consider `CCCc1cc(C(=O)N[C@@H](CC(=O)O)Cc2ccccc2Cl)nn1Cc1ccc(-c2ccccc2-c2nnn[nH]2)cc1` [Example 3-34, (R)-4-(2-Chlorophenyl)-3-({5-propyl-1-[2′-(1H-tetrazol-5-yl)biphenyl-4-ylmethyl]-1H-pyrazole-3-carbonyl}amino)butyric acid], for which the Ki in test [1] is not above 10 nM. Besides, the IC50 in test [2] was not above 10000 nM.

`CCCc1cc(C(=O)N[C@@H](CC(=O)O)Cc2ccccc2Br)nn1Cc1ccc(-c2ccccc2S(=O)(=O)NC(C)=O)cc1` [Example 6-8, (R)-3-{[1-(2′-Acetylsulfamoylbiphenyl-4-ylmethyl)-5-propyl-1H-pyrazole-3-carbonyl]amino}-4-(2-bromophenyl)butyric acid]: the Ki in test [1] is not above 10 nM. The IC50 in test [2] is not above 1000 nM.

As for `CCCc1cc(C(=O)N[C@@H](CC(=O)O)Cc2ccccc2C)nn1Cc1ccc(-c2ccccc2S(=O)(=O)NC(C)=O)cc1` [Example 6-26, (R)-3-{[1-(2′-Acetylsulfamoylbiphenyl-4-ylmethyl)-5-propyl-1H-pyrazole-3-carbonyl]amino}-4-o-tolylbutyric acid], the Ki in test [1] was not above 10 nM. Besides, the IC50 in test [2] is not above 1000 nM.

`CCCc1cc(C(=O)N[C@@H](CC(=O)O)Cc2ccccc2)nn1Cc1ccc(-c2ccccc2-c2nnn[nH]2)cc1` [Example 2, (R)-4-Phenyl-3-({5-propyl-1-[2′-(1H-tetrazol-5-yl)-biphenyl-4-ylmethyl]-1H-pyrazole-3-carbonyl}amino)butyric Acid]: the Ki in test [1] is not above 10 nM. For the same molecule, the IC50 in test [2] is not above 10000 nM.
